± gives the standard deviation of the averaged measurements.
Tests used:
MK2206 = compound: NC1(c2ccc(-c3nc4ccn5c(=O)[nH]nc5c4cc3-c3ccccc3)cc2)CCC1 [MK2206]; experiment: surviving fraction relative to DMSO-only wells; higher = less growth inhibition; settings: exposure time: 5 days
Summary of the method: (§1)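 Viability values are CellTiter-Glo luminescence readings, given as surviving fraction against the median of DMSO-only wells. The readings were taken after 10 minutes at room temperature, following five days of continuous exposure to inhibitors at 0.5, 1, 5, 10, 50, 100, 500 and 1000 nM that began 24 hours after log-phase tumour cell lines were seeded at 250–500 cells per well in 384-well plates. Every line was screened three times and kept only if replicate Pearson r >0.7 and median Z' >0.3.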

METHOTREXATE = compound: CN(Cc1cnc2nc(N)nc(N)c2n1)c1ccc(C(=O)N[C@@H](CCC(=O)O)C(=O)O)cc1 [METHOTREXATE]; experiment: as above; settings: exposure time: 5 days
Summary of the method: as §1

With HCC202 BREAST the surviving fraction (MK2206; 0.5 nM) was 1.07 ± 0.091, the surviving fraction (MK2206; 1 nM) was 1.08 ± 0.12 and the surviving fraction (MK2206; 5 nM) was 1.2 ± 0.16. The surviving fraction (MK2206; 10 nM) was 1.2 ± 0.074, the surviving fraction (MK2206; 50 nM) was 0.699 ± 0.37 and the surviving fraction (MK2206; 100 nM) was 0.688 ± 0.035. The surviving fraction (MK2206; 500 nM) was 0.238 ± 0.012, the surviving fraction (MK2206; 1000 nM) was 0.238 ± 0.0064 and the surviving fraction (METHOTREXATE; 0.5 nM) was 1.3 ± 0.45. The surviving fraction (METHOTREXATE; 1 nM) was 1.26 ± 0.38, the surviving fraction (METHOTREXATE; 5 nM) was 1.21 ± 0.097 and the surviving fraction (METHOTREXATE; 10 nM) was 1 ± 0.25. For the same test system, the surviving fraction (METHOTREXATE; 50 nM) was 1.14 ± 0.16, the surviving fraction (METHOTREXATE; 100 nM) was 1.16 ± 0.37 and the surviving fraction (METHOTREXATE; 500 nM) was 0.945 ± 0.21. The surviving fraction (METHOTREXATE; 1000 nM) was 1.15 ± 0.13.
With LM7 BONE the surviving fraction (MK2206; 0.5 nM) was 0.991 ± 0.019, the surviving fraction (MK2206; 1 nM) was 0.998 ± 0.043 and the surviving fraction (MK2206; 5 nM) was 1.04 ± 0.046. The surviving fraction (MK2206; 10 nM) was 1.03 ± 0.055, the surviving fraction (MK2206; 50 nM) was 0.84 ± 0.069 and the surviving fraction (MK2206; 100 nM) was 0.818 ± 0.056. It also gave a surviving fraction (MK2206; 500 nM) of 0.628 ± 0.041, a surviving fraction (MK2206; 1000 nM) of 0.579 ± 0.016 and a surviving fraction (METHOTREXATE; 0.5 nM) of 1.061 ± 0.0066. For the same test system, the surviving fraction (METHOTREXATE; 1 nM) was 0.974 ± 0.085, the surviving fraction (METHOTREXATE; 5 nM) was 1.13 ± 0.015 and the surviving fraction (METHOTREXATE; 10 nM) was 1.17 ± 0.06. For the same test system, the surviving fraction (METHOTREXATE; 50 nM) was 0.919 ± 0.033, the surviving fraction (METHOTREXATE; 100 nM) was 0.885 ± 0.065 and the surviving fraction (METHOTREXATE; 500 nM) was 0.699 ± 0.042. For the same test system, the surviving fraction (METHOTREXATE; 1000 nM) was 0.64 ± 0.023.
CAL120 BREAST was tested, and the surviving fraction (MK2206; 0.5 nM) was 0.976 ± 0.071, the surviving fraction (MK2206; 1 nM) was 0.977 ± 0.062 and the surviving fraction (MK2206; 5 nM) was 0.991 ± 0.068. It also gave a surviving fraction (MK2206; 10 nM) of 1.01 ± 0.06, a surviving fraction (MK2206; 50 nM) of 0.966 ± 0.051 and a surviving fraction (MK2206; 100 nM) of 0.951 ± 0.031. For the same test system, the surviving fraction (MK2206; 500 nM) was 0.859 ± 0.038, the surviving fraction (MK2206; 1000 nM) was 0.823 ± 0.043 and the surviving fraction (METHOTREXATE; 0.5 nM) was 0.961 ± 0.032. The surviving fraction (METHOTREXATE; 1 nM) was 0.96 ± 0.086, the surviving fraction (METHOTREXATE; 5 nM) was 0.721 ± 0.027 and the surviving fraction (METHOTREXATE; 10 nM) was 0.31 ± 0.026. The surviving fraction (METHOTREXATE; 50 nM) was 0.328 ± 0.0043, the surviving fraction (METHOTREXATE; 100 nM) was 0.336 ± 0.0094 and the surviving fraction (METHOTREXATE; 500 nM) was 0.333 ± 0.0045. For the same test system, the surviving fraction (METHOTREXATE; 1000 nM) was 0.335 ± 0.012.
HELA CERVIX gave a surviving fraction (MK2206; 0.5 nM) of 1.03 ± 0.037, a surviving fraction (MK2206; 1 nM) of 1.15 ± 0.043 and a surviving fraction (MK2206; 5 nM) of 1.12 ± 0.073. For the same test system, the surviving fraction (MK2206; 10 nM) was 1.09 ± 0.12, the surviving fraction (MK2206; 50 nM) was 1.02 ± 0.057 and the surviving fraction (MK2206; 100 nM) was 1.09 ± 0.035. The surviving fraction (MK2206; 500 nM) was 1.08 ± 0.031, the surviving fraction (MK2206; 1000 nM) was 1.19 ± 0.051 and the surviving fraction (METHOTREXATE; 0.5 nM) was 1.06 ± 0.044. For the same test system, the surviving fraction (METHOTREXATE; 1 nM) was 1.027 ± 0.0067, the surviving fraction (METHOTREXATE; 5 nM) was 1.03 ± 0.039 and the surviving fraction (METHOTREXATE; 10 nM) was 1.02 ± 0.018. The surviving fraction (METHOTREXATE; 50 nM) was 0.712 ± 0.085, the surviving fraction (METHOTREXATE; 100 nM) was 0.332 ± 0.018 and the surviving fraction (METHOTREXATE; 500 nM) was 0.282 ± 0.012. For the same test system, the surviving fraction (METHOTREXATE; 1000 nM) was 0.288 ± 0.016.
Test System YAMATO SYNOVIAL has a surviving fraction (MK2206; 0.5 nM) of 1.13 ± 0.13, a surviving fraction (MK2206; 1 nM) of 1.12 ± 0.023 and a surviving fraction (MK2206; 5 nM) of 1.16 ± 0.1. The surviving fraction (MK2206; 10 nM) was 1.08 ± 0.063, the surviving fraction (MK2206; 50 nM) was 0.84 ± 0.022 and the surviving fraction (MK2206; 100 nM) was 0.708 ± 0.036. For the same test system, the surviving fraction (MK2206; 500 nM) was 0.521 ± 0.01, the surviving fraction (MK2206; 1000 nM) was 0.482 ± 0.027 and the surviving fraction (METHOTREXATE; 0.5 nM) was 1.18 ± 0.13. It also gave a surviving fraction (METHOTREXATE; 1 nM) of 1.05 ± 0.089, a surviving fraction (METHOTREXATE; 5 nM) of 1.25 ± 0.17 and a surviving fraction (METHOTREXATE; 10 nM) of 0.532 ± 0.058. The surviving fraction (METHOTREXATE; 50 nM) was 0.685 ± 0.065, the surviving fraction (METHOTREXATE; 100 nM) was 0.587 ± 0.05 and the surviving fraction (METHOTREXATE; 500 nM) was 0.584 ± 0.046. The surviving fraction (METHOTREXATE; 1000 nM) was 0.604 ± 0.048.
Work on MHM BONE yielded a surviving fraction (MK2206; 0.5 nM) of 0.981 ± 0.021, a surviving fraction (MK2206; 1 nM) of 0.9797 ± 0.0065 and a surviving fraction (MK2206; 5 nM) of 1.01 ± 0.024. It also gave a surviving fraction (MK2206; 10 nM) of 1.05 ± 0.027, a surviving fraction (MK2206; 50 nM) of 0.963 ± 0.035 and a surviving fraction (MK2206; 100 nM) of 0.959 ± 0.026. The surviving fraction (MK2206; 500 nM) was 0.89 ± 0.04, the surviving fraction (MK2206; 1000 nM) was 0.8973 ± 0.0085 and the surviving fraction (METHOTREXATE; 0.5 nM) was 1.02 ± 0.036. It also gave a surviving fraction (METHOTREXATE; 1 nM) of 1.04 ± 0.044, a surviving fraction (METHOTREXATE; 5 nM) of 1.05 ± 0.078 and a surviving fraction (METHOTREXATE; 10 nM) of 1.06 ± 0.038. The surviving fraction (METHOTREXATE; 50 nM) was 0.784 ± 0.016, the surviving fraction (METHOTREXATE; 100 nM) was 0.723 ± 0.04 and the surviving fraction (METHOTREXATE; 500 nM) was 0.689 ± 0.019. For the same test system, the surviving fraction (METHOTREXATE; 1000 nM) was 0.699 ± 0.01.
In the case of SNU475 LIVER, the surviving fraction (MK2206; 0.5 nM) is reported as 0.973 ± 0.037, the surviving fraction (MK2206; 1 nM) is reported as 1.04 ± 0.053 and the surviving fraction (MK2206; 5 nM) is reported as 1.01 ± 0.027. It also gave a surviving fraction (MK2206; 10 nM) of 0.983 ± 0.043, a surviving fraction (MK2206; 50 nM) of 0.9 ± 0.024 and a surviving fraction (MK2206; 100 nM) of 0.891 ± 0.018. For the same test system, the surviving fraction (MK2206; 500 nM) was 0.767 ± 0.03, the surviving fraction (MK2206; 1000 nM) was 0.653 ± 0.1 and the surviving fraction (METHOTREXATE; 0.5 nM) was 1.04 ± 0.056. It also gave a surviving fraction (METHOTREXATE; 1 nM) of 1.05 ± 0.05, a surviving fraction (METHOTREXATE; 5 nM) of 1.05 ± 0.018 and a surviving fraction (METHOTREXATE; 10 nM) of 0.924 ± 0.01. For the same test system, the surviving fraction (METHOTREXATE; 50 nM) was 0.822 ± 0.13, the surviving fraction (METHOTREXATE; 100 nM) was 0.854 ± 0.072 and the surviving fraction (METHOTREXATE; 500 nM) was 0.875 ± 0.047. The surviving fraction (METHOTREXATE; 1000 nM) was 0.843 ± 0.11.
Work on HCT15 LARGE INTESTINE yielded a surviving fraction (MK2206; 0.5 nM) of 1.04 ± 0.042, a surviving fraction (MK2206; 1 nM) of 1.07 ± 0.048 and a surviving fraction (MK2206; 5 nM) of 1.08 ± 0.052. For the same test system, the surviving fraction (MK2206; 10 nM) was 1.07 ± 0.064, the surviving fraction (MK2206; 50 nM) was 1.02 ± 0.063 and the surviving fraction (MK2206; 100 nM) was 1.07 ± 0.025. It also gave a surviving fraction (MK2206; 500 nM) of 0.942 ± 0.073, a surviving fraction (MK2206; 1000 nM) of 0.928 ± 0.026 and a surviving fraction (METHOTREXATE; 0.5 nM) of 1.08 ± 0.046. For the same test system, the surviving fraction (METHOTREXATE; 1 nM) was 1.05 ± 0.13, the surviving fraction (METHOTREXATE; 5 nM) was 1.04 ± 0.13 and the surviving fraction (METHOTREXATE; 10 nM) was 0.749 ± 0.18. It also gave a surviving fraction (METHOTREXATE; 50 nM) of 0.138 ± 0.014, a surviving fraction (METHOTREXATE; 100 nM) of 0.102 ± 0.017 and a surviving fraction (METHOTREXATE; 500 nM) of 0.137 ± 0.019. The surviving fraction (METHOTREXATE; 1000 nM) was 0.134 ± 0.015.

Source: the supplement of paper PMC6045584
